# Assay results as given in PubChem BioAssay AID296 (DTP/NCI, 2004).
# “And” between values parts separate entries of the source, which are not always exact repeats. Equal entries are not always repeated. Records with an inconclusive call do not appear.
# System: MX-1 breast xenograft, nude mice, tumor weight T/C
# Assay: NCI In Vivo Anticancer Drug Screen. Data for tumor model Human Mammary Carcinoma MX-1 Xenograft (intrarenal inoculation) in NU/NU Swiss (nude) mice
# Conditions: endpoint: mean tumor weight change, higher = larger tumour
# In short: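 Read-out: treated (T) over vehicle control (C) ratio of survival or tumor size. Dosing in animals carrying the transplanted tumor.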
# [1] = dose: 600.0 mg/kg/injection, schedule: Q04DX003 (sc), vehicle: Klucel (hydroxypropylcellulose) (HPC)
compound,measurement,setting,value
CC[n+]1c(-c2ccccc2)c2cc(N)ccc2c2ccc(N)cc21,T/C,"dose: 15.0 mg/kg/injection, schedule: Q04DX003 (sc), vehicle: saline",119 % of control
same,T/C,"dose: 30.0 mg/kg/injection, schedule: Q04DX003 (sc), vehicle: saline",110 % of control
same,T/C,"dose: 60.0 mg/kg/injection, schedule: Q04DX003 (sc), vehicle: saline",83 % of control
ClCCCN1CCN(CCCl)CC1,T/C,"dose: 7.5 mg/kg/injection, schedule: Q04DX003 (sc), vehicle: saline",8 % of control and 10 % of control and 31 % of control
O=C(O)/C=C/C(=O)Nc1ccc(Cl)c(Cl)c1,T/C,"dose: 50.0 mg/kg/injection, schedule: Q04DX003 (sc), vehicle: Klucel (hydroxypropylcellulose) (HPC)",111 % of control
same,T/C,"dose: 100.0 mg/kg/injection, schedule: Q04DX003 (sc), vehicle: Klucel (hydroxypropylcellulose) (HPC)",91 % of control
same,T/C,"dose: 400.0 mg/kg/injection, schedule: Q04DX003 (sc), vehicle: Klucel (hydroxypropylcellulose) (HPC)",120 % of control
CN(N=O)C(N)=O,T/C,"dose: 12.5 mg/kg/injection, schedule: Q01DX010 (sc), vehicle: saline with Tween-80",41 % of control
same,T/C,"dose: 12.5 mg/kg/injection, schedule: Q04DX003 (sc), vehicle: saline",83 % of control
same,T/C,"dose: 25.0 mg/kg/injection, schedule: Q04DX003 (sc), vehicle: saline",54 % of control
same,T/C,"dose: 25.0 mg/kg/injection, schedule: Q04DX003 (sc), vehicle: suspension in saline",54 % of control
same,T/C,"dose: 50.0 mg/kg/injection, schedule: Q04DX003 (sc), vehicle: saline with Tween-80",17 % of control
same,T/C,"dose: 50.0 mg/kg/injection, schedule: Q04DX003 (sc), vehicle: saline",6 % of control
same,T/C,"dose: 50.0 mg/kg/injection, schedule: Q04DX003 (sc), vehicle: suspension in saline",63 % of control
same,T/C,"dose: 100.0 mg/kg/injection, schedule: Q04DX003 (sc), vehicle: saline with Tween-80",-68 % of control
same,T/C,"dose: 100.0 mg/kg/injection, schedule: Q04DX003 (sc), vehicle: saline",-100 % of control
same,T/C,"dose: 100.0 mg/kg/injection, schedule: Q04DX003 (sc), vehicle: suspension in saline",17 % of control
Nc1ncn(C2CC(O)C(CO)O2)c(=O)n1 (centres undefined),T/C,"dose: 0.2 mg/kg/injection, schedule: Q01DX010 (sc), vehicle: saline",114 % of control
Oc1ccc(SCc2ccc(NCc3ccccc3)cc2)cc1,T/C,"dose: 25.0 mg/kg/injection, schedule: Q01DX010 (sc), vehicle: saline with Tween-80",104 % of control
same,T/C,"dose: 50.0 mg/kg/injection, schedule: Q01DX010 (sc), vehicle: saline with Tween-80",46 % of control
same,T/C,"dose: 100.0 mg/kg/injection, schedule: Q01DX010 (sc), vehicle: saline with Tween-80",92 % of control
same,T/C,"dose: 200.0 mg/kg/injection, schedule: Q01DX010 (sc), vehicle: saline with Tween-80",74 % of control
same,T/C,"dose: 400.0 mg/kg/injection, schedule: Q01DX010 (sc), vehicle: saline with Tween-80",55 % of control
same,T/C,"dose: 800.0 mg/kg/injection, schedule: Q01DX010 (sc), vehicle: saline with Tween-80",94 % of control
O=NN(CCCl)C(=O)Oc1ccc(OC(=O)N(CCCl)N=O)cc1,T/C,"dose: 150.0 mg/kg/injection, schedule: Q04DX003 (sc), vehicle: Klucel (hydroxypropylcellulose) (HPC)",107 % of control
same,T/C,"dose: 300.0 mg/kg/injection, schedule: Q04DX003 (sc), vehicle: Klucel (hydroxypropylcellulose) (HPC)",95 % of control
same,T/C,[1],91 % of control
same,T/C,"dose: 1200.0 mg/kg/injection, schedule: Q04DX003 (sc), vehicle: Klucel (hydroxypropylcellulose) (HPC)",117 % of control
CN(C)CCOc1ccc2c(c1)C/C(=C/c1ncc([N+](=O)[O-])n1C)C2=O,T/C,"dose: 300.0 mg/kg/injection, schedule: Q04DX003 (sc), vehicle: saline with Tween-80",81 % of control
same,T/C,"dose: 600.0 mg/kg/injection, schedule: Q04DX003 (sc), vehicle: saline with Tween-80",68 % of control
same,T/C,"dose: 1200.0 mg/kg/injection, schedule: Q04DX003 (sc), vehicle: saline with Tween-80",89 % of control
same,T/C,"dose: 2400.0 mg/kg/injection, schedule: Q04DX003 (sc), vehicle: saline with Tween-80",70 % of control
OC(C1CO1)C(O)C1CO1 (centres undefined),T/C,"dose: 1.0 mg/kg/injection, schedule: Q01DX010 (sc), vehicle: saline",5 % of control and 18 % of control
O=C(O)CP(=O)(O)O,T/C,"dose: 300.0 mg/kg/injection, schedule: Q04DX003 (sc), vehicle: saline",87 % of control
same,T/C,"dose: 600.0 mg/kg/injection, schedule: Q04DX003 (sc), vehicle: saline",89 % of control
same,T/C,"dose: 1200.0 mg/kg/injection, schedule: Q04DX003 (sc), vehicle: saline",83 % of control
same,T/C,"dose: 2400.0 mg/kg/injection, schedule: Q04DX003 (sc), vehicle: saline",59 % of control
O=Cc1ccc(C=O)c(Cl)c1,T/C,[1],77 % of control
same,T/C,"dose: 2400.0 mg/kg/injection, schedule: Q04DX003 (sc), vehicle: Klucel (hydroxypropylcellulose) (HPC)",120 % of control
